Structures are written as SMILES. Entries after “also recorded” stand apart in the source; their conditions may differ. Where two headings read alike, the source gives them in different places.

The target in one test is T1, histidine decarboxylase (Homo sapiens, UniProt P19113).
T1 sequence (P19113 1-662): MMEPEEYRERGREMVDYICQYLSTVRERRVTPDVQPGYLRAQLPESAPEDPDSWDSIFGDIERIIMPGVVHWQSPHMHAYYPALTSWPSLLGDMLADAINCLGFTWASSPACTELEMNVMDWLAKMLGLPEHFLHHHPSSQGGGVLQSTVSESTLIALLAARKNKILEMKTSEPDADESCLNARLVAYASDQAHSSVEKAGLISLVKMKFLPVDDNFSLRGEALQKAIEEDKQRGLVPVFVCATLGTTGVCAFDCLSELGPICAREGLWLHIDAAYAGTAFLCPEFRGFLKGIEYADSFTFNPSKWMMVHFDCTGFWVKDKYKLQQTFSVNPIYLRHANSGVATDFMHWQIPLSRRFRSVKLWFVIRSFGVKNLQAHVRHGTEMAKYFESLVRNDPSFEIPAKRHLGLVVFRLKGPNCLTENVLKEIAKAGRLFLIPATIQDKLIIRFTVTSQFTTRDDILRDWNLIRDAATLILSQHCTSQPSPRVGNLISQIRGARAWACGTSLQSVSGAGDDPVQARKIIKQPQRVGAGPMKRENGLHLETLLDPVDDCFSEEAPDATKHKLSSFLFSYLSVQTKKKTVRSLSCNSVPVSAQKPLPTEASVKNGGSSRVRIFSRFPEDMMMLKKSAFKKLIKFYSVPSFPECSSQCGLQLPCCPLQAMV
Nature of the test: Inhibition of histidine decarboxylase (formation of histamine-2-14C). Type of test: biochemical. The following applies: for inhibiting action against histidine decarboxylase: in words; for IC50: read-out: concentration for 50% inhibition ratio of histidine decarboxylase (converted). As for the experimental part:
This inhibition is measured in the following manner:
The reaction liquid is prepared from 2.5 × 10^-^4 mole of L-histidine-2-^14 C (1.0 × 10^5 cpm), 3.7 × 10^-^5 mole of pyridoxal phosphate, 0.1 cc of histidine decarboxylase (protein content, 1 mg/cc), 0.1 cc of 0.67 mole phosphate buffer solution (pH 6.8) and sample solution. To this mixture there is added distilled water until 1 cc total volume of reaction liquid is obtained. The thusly prepared reaction liquid is then allowed to react for 2 hours at 37° C. and the formed histamine-2-^14 C is adsorbed on ammonia type "Amberlite CG-50". After washing the "Amberlite CG-50" with water, the adsorbed histamine is eluted with 1 N aqueous ammonia and a quantity of elute is sampled to measure its radioactivity by use of a liquid scintillation counter. The thusly measured radioactivity tells the quantity of formed histamine, so that the inhibition against histidine decarboxylase can be determined.

Another test relates to fungi. Nature of the test: Inhibiting action against growth of fungi. Type of test: cell-based. The note with it: at 100 .nu./cc.
The target of test [1] is T2, catechol-O-methyl transferase (COMT) (Rattus norvegicus, UniProt P22734).
T2 sequence (P22734 1-221 isoform P22734-2): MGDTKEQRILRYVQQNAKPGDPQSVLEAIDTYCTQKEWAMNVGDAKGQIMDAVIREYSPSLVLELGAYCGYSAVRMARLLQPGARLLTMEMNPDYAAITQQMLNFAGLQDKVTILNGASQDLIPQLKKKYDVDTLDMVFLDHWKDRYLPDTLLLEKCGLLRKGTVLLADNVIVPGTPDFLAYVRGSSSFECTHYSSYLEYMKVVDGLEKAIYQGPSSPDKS
Nature of the test: Inhibition of catechol-O-methyl transferase (formation of tritium metanephrine). The format is biochemical.
Description: The compounds (I), (II) and (III) can be determined by measuring inhibition of COMT. The activity of COMT is measured in accordance with the method reported by B. Nikodejevic et al. (Ref. "The Journal of Pharmacology and Experimental Therapeutics", Vol. 174, pp. 83-93, by B. Nikodejevic et al., 1970). 0.5 cc total volume of reaction liquid is prepared from 0.125 cc of water, 0.05 cc of 0.1 mole phosphate buffer solution (pH 8.0), 0.1 cc of 0.1 mole magnesium chloride solution, 0.05 cc. of 0.05 mole adrenaline solution, 0.075 cc of 0.5 millimole tritium-8-adenosyl methionine aqueous solution (2.2 × 10^5 cpm), 0.05 cc of sample solution and 0.05 cc of enzyme solution. These solutions are mixed together at 0° C. and, after reacting for 20 minutes at 37° C., 1 cc of 0.5 mole boric acid buffer solution (pH 10.0) is added to stop the reaction. Then, tritium metanephrine (^3 H-metanephrine) wherein the meta-hydroxyl group has been methylated is extracted with a solvent mixture such as toluene-isoamyl alcohol (3:2). A quantity of solvent portion is then sampled and its radioactivity is measured by use of a liquid scintillation counter. The thusly obtained measurement of radioactivity tells the quantity of formed metanephrine, which in turn permits one to determine the inhibition.

The mark [2] stands for this setting: isolated compounds, read-out: concentration inhibiting the activity of COMT by 50% (converted).
Setting [3] is: powders from silica gel fractions, Example 1, read-out: concentration showing 50% inhibition against COMT (converted).

For the molecule `COc1ccc(-c2coc3cc(O)c(OC)c(O)c3c2=O)cc1O` [Compound (I), 3',5,7-trihydroxy-4',6-dimethoxy-isoflavone], the “inhibiting action against histidine decarboxylase” value at histidine decarboxylase is “inhibit; also recorded: inhibiting action”. The figures for the IC50 at histidine decarboxylase (printed in parentheses) and at histidine decarboxylase were 18 µM and 18.2 µM, respectively. The “inhibiting action against the growth of fungi” value (from here on “inhibiting action … of fungi”) with fungi was “no inhibiting action”.
With `COc1ccc(-c2coc3c(OC)c(O)cc(O)c3c2=O)cc1O` [Compound (II), 3',5,7-trihydroxy-4',8-dimethoxy-isoflavone], the IC50 is 15.1 µM in test [1] (setting [2]), 236 µM in test [1] (setting [3]), 4.5 µM on histidine decarboxylase (printed in parentheses) and 4.54 µM at histidine decarboxylase. Moreover, the “inhibiting action against histidine decarboxylase” value against histidine decarboxylase is “inhibit; also recorded: inhibiting action”. Moreover, in the test with fungi, the “inhibiting action … of fungi” value is given as “no inhibiting action”.
In the case of `COc1ccc(-c2coc3c(OC)c(O)c(OC)cc3c2=O)cc1O` [Compound (III), 3',7-dihydroxy-4',6,8-trimethoxy-isoflavone], the “selectivity for COMT against the other enzymes” value in test [1] (in words, other enzymes: tyrosine hydroxylase, dopamin-β-hydroxylase, DOPA decarboxylase, histidine decarboxylase) was “inhibiting action only against COMT and not against the other enzymes”. Further, the IC50 in test [1] (setting [2]) was 0.581 µM; in test [1] (setting [3]), 14.5 µM. The inhibition at 100 µg/mL at histidine decarboxylase (2 h, at 100 .nu./cc, read-out: inhibition ratio against histidine decarboxylase) was about 31.9%. Further, the “inhibiting action against histidine decarboxylase” value against histidine decarboxylase is given as “inhibiting action”. Besides, the “inhibiting action … of fungi” value in the test on fungi is on record as “no inhibiting action”.

The values above are taken from patent US3974184A, “Microbial production of certain isoflavones” (Zaidan Hojin Biseibutsu Kagaku Kenkyu Kai, priority 1973, dated 1976).
